In one assay the target is Carbonic anhydrase 9 (Homo sapiens, UniProt Q16790). In words: Inhibition of recombinant human carbonic anhydrase 9 by stopped-flow CO2 hydration assay.
The next assay relates to MCF7. In words: Antiproliferation activity against human MCF7 cells assessed as reduction in cell viability under hypoxic conditions by MTT assay.
The test system of the next assay is MCF-10A. In words: cells. Particulars: Homo sapiens.
A further assay concerns the target Carbonic anhydrase 2 (Homo sapiens, UniProt P00918). As to the kind of experiment: Inhibition of recombinant human carbonic anhydrase 2 by stopped-flow CO2 hydration assay.
In a further assay the target is Carbonic anhydrase 4 (Homo sapiens, UniProt P22748). As to the kind of experiment: Inhibition of recombinant human carbonic anhydrase 4 by stopped-flow CO2 hydration assay.
The target in the next assay is Carbonic anhydrase 1 (Homo sapiens, UniProt P00915). As to the kind of experiment: Inhibition of recombinant human carbonic anhydrase 1 by stopped-flow CO2 hydration assay.
Carbonic anhydrase 1, sequence (P00915 whole entry): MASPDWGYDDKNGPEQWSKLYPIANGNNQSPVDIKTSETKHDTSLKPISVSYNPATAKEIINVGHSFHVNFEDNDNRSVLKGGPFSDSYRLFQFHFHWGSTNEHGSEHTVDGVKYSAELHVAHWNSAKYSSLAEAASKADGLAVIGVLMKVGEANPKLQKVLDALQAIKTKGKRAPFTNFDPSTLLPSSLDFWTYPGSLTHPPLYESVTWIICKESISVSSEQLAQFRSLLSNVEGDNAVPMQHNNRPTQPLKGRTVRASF

Carbonic anhydrase 4, sequence (P22748 whole entry): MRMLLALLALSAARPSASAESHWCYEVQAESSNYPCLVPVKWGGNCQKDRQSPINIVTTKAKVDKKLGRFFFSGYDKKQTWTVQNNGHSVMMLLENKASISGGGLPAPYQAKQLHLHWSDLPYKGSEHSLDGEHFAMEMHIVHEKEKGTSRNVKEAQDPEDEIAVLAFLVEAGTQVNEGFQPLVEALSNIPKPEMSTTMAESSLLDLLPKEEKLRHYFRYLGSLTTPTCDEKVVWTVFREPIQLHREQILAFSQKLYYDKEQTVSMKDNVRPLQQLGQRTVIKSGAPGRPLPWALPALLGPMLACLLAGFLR
Description for MCF-10A: Antiproliferation activity against human MCF-10A cells assessed as reduction in cell viability under hypoxic conditions by MTT assay

What is called Ki is a dissociation constant, usually derived from enzyme kinetics or from competition with a known ligand. For orientation: IC50 means the midpoint of a concentration-inhibition curve. Take `NS(=O)(=O)c1ccc(N/C=C(\C(=O)c2ccc(Br)cc2)S(=O)(=O)c2ccccc2)cc1`: on Carbonic anhydrase 9, the Ki was 3.03 µM. The figures for the IC50 in the assay on MCF7 and in the assay with MCF-10A were 62.7 µM and 20.4 µM, respectively.
For `NS(=O)(=O)c1ccc(N/C=C(\C(=O)c2ccc(Cl)cc2)S(=O)(=O)c2ccccc2)cc1` the same measures were 3.01 µM, 15.1 µM and 28 µM.
For `C/C(=N/NC(=O)c1ccc(S(N)(=O)=O)cc1)c1ccc(Cl)cc1` the same measures were 0.319 µM, 3.75 µM and 62.7 µM.
For `NS(=O)(=O)c1ccc(C(=O)N/N=C\c2ccc(Br)cc2)cc1` the same measures were 2.21 µM, 1.37 µM and 27.7 µM.
Take `O=C(O)c1ccc(N/N=C(/CS(=O)(=O)c2ccccc2)c2ccc(Br)cc2)cc1`: the Ki at Carbonic anhydrase 2, on Carbonic anhydrase 9, on Carbonic anhydrase 4 and at Carbonic anhydrase 1 was over 100 µM each time.
In the case of `NS(=O)(=O)c1ccc(C(=O)N/N=C(/CS(=O)(=O)c2ccccc2)c2ccccc2)cc1`, the Ki on Carbonic anhydrase 9 is 0.769 µM. Also, the IC50 with MCF7 was determined as 10.7 µM; with MCF-10A it was 84.8 µM.
As to `NS(=O)(=O)c1ccc(C(=O)N/N=C(/CS(=O)(=O)c2ccccc2)c2ccc(Cl)cc2)cc1`, at Carbonic anhydrase 9, the Ki turned out to be 0.818 µM. The IC50 in the assay with MCF7 stood at 57 µM; in the assay with MCF-10A it was 25.6 µM.
The corresponding values for `NS(=O)(=O)c1ccc(N/N=C(\C(=O)c2ccccc2)S(=O)(=O)c2ccccc2)cc1` are 1.61 µM, 1.74 µM and 14.1 µM.
Turning to `NS(=O)(=O)c1ccc(N/N=C(/CS(=O)(=O)c2ccccc2)c2ccccc2)cc1`, at Carbonic anhydrase 9, the Ki came to 2.49 µM. Besides, the IC50 turned out to be 3.97 µM with MCF7 and 46.1 µM with MCF-10A.
For `NS(=O)(=O)c1ccc(C(=O)N/N=C\c2ccc(F)cc2)cc1` the same measures were 2.37 µM, 9.17 µM and 35.9 µM.
With `C/C(=N/NC(=O)c1ccc(S(N)(=O)=O)cc1)c1ccc(Br)cc1`, the Ki on Carbonic anhydrase 9 worked out at 0.962 µM. Moreover, the IC50 was 2.29 µM in the assay with MCF7 and 37.6 µM in the assay with MCF-10A.
With `NS(=O)(=O)c1ccc(C(=O)N/N=C(/CS(=O)(=O)c2ccccc2)c2ccc(F)cc2)cc1`, the Ki on Carbonic anhydrase 9 was determined as 1.12 µM. Also, the IC50 in the assay with MCF7 came out at 0.62 µM; in the assay on MCF-10A, 63.7 µM.
Consider `NS(=O)(=O)c1ccc(N/N=C(/CS(=O)(=O)c2ccccc2)c2ccc(Cl)cc2)cc1`, for which the Ki at Carbonic anhydrase 9 turned out to be 2.91 µM. Also, the IC50 with MCF7 amounted to 8.01 µM; with MCF-10A, 28.6 µM.
For `NS(=O)(=O)c1ccc(N/C=C(\C(=O)c2ccccc2)S(=O)(=O)c2ccccc2)cc1` the same measures were 2.76 µM, 3.44 µM and 17.9 µM.
Consider `C/C(=N/NC(=O)c1ccc(S(N)(=O)=O)cc1)c1ccc(F)cc1`, for which the Ki at Carbonic anhydrase 9 came to 1.45 µM. Moreover, the IC50 in the assay on MCF7 is 31.9 µM; with MCF-10A, 22 µM.
Take `O=C(O)c1ccc(N/C=C(\C(=O)c2ccc(Br)cc2)S(=O)(=O)c2ccccc2)cc1`: the Ki on Carbonic anhydrase 9, at Carbonic anhydrase 4 and at Carbonic anhydrase 1 was over 100 µM each time.
With `C/C(=N/NC(=O)c1ccc(S(N)(=O)=O)cc1)c1ccccc1`, the Ki on Carbonic anhydrase 9 turned out to be 0.322 µM. Moreover, the IC50 in the assay with MCF7 was found to be 20.1 µM; with MCF-10A it was 31.1 µM.
For the compound `O=C(O)c1ccc(N/N=C(/CS(=O)(=O)c2ccccc2)c2ccccc2)cc1`, the inhibition constant Ki at Carbonic anhydrase 9 and at Carbonic anhydrase 4 was over 100 µM each time.
Regarding `NS(=O)(=O)c1ccc(C(=O)N/N=C\c2ccc(Cl)cc2)cc1`, the Ki on Carbonic anhydrase 9 stood at 2.09 µM. For the same compound, the IC50 in the assay with MCF7 is 36.7 µM; in the assay with MCF-10A, 82 µM.
The corresponding values for `NS(=O)(=O)c1ccc(C(=O)N/N=C(/CS(=O)(=O)c2ccccc2)c2ccc(Br)cc2)cc1` are 0.289 µM, 19.1 µM and 34.1 µM.
With `O=C(O)c1ccc(N/C=C(\C(=O)c2ccccc2)S(=O)(=O)c2ccccc2)cc1`, the Ki at Carbonic anhydrase 2, on Carbonic anhydrase 9, on Carbonic anhydrase 4 and at Carbonic anhydrase 1 was over 100 µM in each case.
Turning to `O=C(O)c1ccc(N/N=C(\C(=O)c2ccccc2)S(=O)(=O)c2ccccc2)cc1`, the Ki at Carbonic anhydrase 2, on Carbonic anhydrase 9, on Carbonic anhydrase 4 and at Carbonic anhydrase 1 was over 100 µM each time.
As to `O=C(O)c1ccc(N/C=C(\C(=O)c2ccc(Cl)cc2)S(=O)(=O)c2ccccc2)cc1`, the Ki at Carbonic anhydrase 2, on Carbonic anhydrase 9, at Carbonic anhydrase 4 and at Carbonic anhydrase 1 was over 100 µM each time.
As for `NS(=O)(=O)c1ccc(N/N=C(/CS(=O)(=O)c2ccccc2)c2ccc(Br)cc2)cc1`, the Ki at Carbonic anhydrase 9 worked out at 0.909 µM. In addition, the IC50 turned out to be 17.3 µM in the assay on MCF7 and 12.9 µM in the assay with MCF-10A.
`NS(=O)(=O)c1ccc(C(=O)N/N=C\c2ccccc2)cc1`: on Carbonic anhydrase 9, the Ki is 0.869 µM. The IC50 in the assay with MCF7 is 14.9 µM; in the assay with MCF-10A it was 39.4 µM.
For `O=C(O)c1ccc(N/N=C(/CS(=O)(=O)c2ccccc2)c2ccc(Cl)cc2)cc1`, the Ki on Carbonic anhydrase 9 and at Carbonic anhydrase 1 was over 100 µM each time.
For the compound `O=c1[nH]cc(F)c(=O)[nH]1` [FLUOROURACIL], the IC50 with MCF7 is 12.5 µM; with MCF-10A, 17.2 µM.

The record behind these values is ChEMBL document CHEMBL4842321, “Novel benzenesulfonamides aryl and arylsulfone conjugates adopting tail/dual tail approaches: Synthesis, carbonic anhydrase inhibitory activity and molecular modeling studies” (Eur J Med Chem, 2021).
